System: 519858-162-T-J1-PDC complex spheroid viability
Experiment: Anticancer human tumor 519858-162-T-J1-PDC patient-derived colon adenocarcinoma cell line growth inhibition [GQUAD]
Settings: for IC50: curve of first compound; for viability, T/C: stronger effect = lower value
In short: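 Viability of tumor cells grown as complex spheroids with endothelial and stromal cells, exposed to drug combinations. Top concentration at or near clinical Cmax (else 10 microM), diluted in half-log increments.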

[1] = second compound 0.0316 µM, first compound 0.0316 µM
[2] = second compound 0.0316 µM, first compound 0.316 µM
[3] = second compound 0.1 µM, first compound 0.0316 µM
[4] = second compound 0.1 µM, first compound 0.316 µM
[5] = second compound 0.316 µM, first compound 0.0316 µM
[6] = second compound 0.316 µM, first compound 0.316 µM
[7] = second compound 1 µM, first compound 0.0316 µM
[8] = second compound 1 µM, first compound 0.316 µM
[9] = second compound 3.16 µM, first compound 0.0316 µM
[10] = second compound 3.16 µM, first compound 0.316 µM
[11] = second compound 10 µM, first compound 0.0316 µM
[12] = second compound 10 µM, first compound 0.316 µM
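Wherever viability, T/C is given: 100% = DMSO vehicle control viability.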

Cc1[nH]c2ccccc2c1CCNCc1ccc(/C=C/C(=O)NO)cc1 + Cc1[nH]c2ccc(F)cc2c1-c1nc2c3cccnc3c3ncccc3c2[nH]1 gave an IC50 (second compound 0.0316 µM) of over 316 nM, an IC50 (second compound 0.1 µM) of 91 nM and an IC50 (second compound 0.316 µM) of 165 nM. For the same compound, the IC50 (second compound 1 µM) was over 316 nM, the IC50 (second compound 3.16 µM) was over 316 nM and the IC50 (second compound 10 µM) was 134 nM. For the same compound, the viability, T/C (second compound 0.0316 µM, first compound 0.000999 µM) was 99.7%, the viability, T/C (second compound 0.0316 µM, first compound 0.00316 µM) was 117% and the viability, T/C (second compound 0.0316 µM, first compound 0.00999 µM) was 115%. It also gave a viability, T/C [1] of 120%, a viability, T/C (second compound 0.0316 µM, first compound 0.0999 µM) of 64.1% and a viability, T/C [2] of 49.7%. It also gave a viability, T/C (second compound 0.1 µM, first compound 0.000999 µM) of 82.1%, a viability, T/C (second compound 0.1 µM, first compound 0.00316 µM) of 128% and a viability, T/C (second compound 0.1 µM, first compound 0.00999 µM) of 117%. It also gave a viability, T/C [3] of 88.3%, a viability, T/C (second compound 0.1 µM, first compound 0.0999 µM) of 42% and a viability, T/C [4] of 51.3%. For the same compound, the viability, T/C (second compound 0.316 µM, first compound 0.000999 µM) was 113%, the viability, T/C (second compound 0.316 µM, first compound 0.00316 µM) was 67.8% and the viability, T/C (second compound 0.316 µM, first compound 0.00999 µM) was 76%. It also gave a viability, T/C [5] of 113%, a viability, T/C (second compound 0.316 µM, first compound 0.0999 µM) of 59.8% and a viability, T/C [6] of 37.2%. For the same compound, the viability, T/C (second compound 1 µM, first compound 0.000999 µM) was 107%, the viability, T/C (second compound 1 µM, first compound 0.00316 µM) was 54.1% and the viability, T/C (second compound 1 µM, first compound 0.00999 µM) was 86.5%. For the same compound, the viability, T/C [7] was 73.3%, the viability, T/C (second compound 1 µM, first compound 0.0999 µM) was 54.5% and the viability, T/C [8] was 53.2%. It also gave a viability, T/C (second compound 3.16 µM, first compound 0.000999 µM) of 65.3%, a viability, T/C (second compound 3.16 µM, first compound 0.00316 µM) of 56.5% and a viability, T/C (second compound 3.16 µM, first compound 0.00999 µM) of 64.8%. It also gave a viability, T/C [9] of 54%, a viability, T/C (second compound 3.16 µM, first compound 0.0999 µM) of 70.2% and a viability, T/C [10] of 46.7%. The viability, T/C (second compound 10 µM, first compound 0.000999 µM) was 76.9%, the viability, T/C (second compound 10 µM, first compound 0.00316 µM) was 77.7% and the viability, T/C (second compound 10 µM, first compound 0.00999 µM) was 55%. For the same compound, the viability, T/C [11] was 65.5%, the viability, T/C (second compound 10 µM, first compound 0.0999 µM) was 52.4% and the viability, T/C [12] was 43.2%.
O=c1[nH]cc(F)c(=O)[nH]1 + Cc1[nH]c2ccc(F)cc2c1-c1nc2c3cccnc3c3ncccc3c2[nH]1 was tested, and the IC50 (second compound 0.0316 µM) was over 10000 nM, the IC50 (second compound 0.1 µM) was over 10000 nM and the IC50 (second compound 0.316 µM) was over 10000 nM. It also gave an IC50 (second compound 1 µM) of over 10000 nM, an IC50 (second compound 3.16 µM) of over 10000 nM and an IC50 (second compound 10 µM) of over 10000 nM. The viability, T/C [1] was 138%, the viability, T/C (second compound 0.0316 µM, first compound 0.1 µM) was 85.8% and the viability, T/C [2] was 80.8%. For the same compound, the viability, T/C (second compound 0.0316 µM, first compound 1 µM) was 98.3%, the viability, T/C (second compound 0.0316 µM, first compound 3.16 µM) was 81.7% and the viability, T/C (second compound 0.0316 µM, first compound 10 µM) was 87.3%. For the same compound, the viability, T/C [3] was 116%, the viability, T/C (second compound 0.1 µM, first compound 0.1 µM) was 103% and the viability, T/C [4] was 94%. The viability, T/C (second compound 0.1 µM, first compound 1 µM) was 98.6%, the viability, T/C (second compound 0.1 µM, first compound 3.16 µM) was 70.6% and the viability, T/C (second compound 0.1 µM, first compound 10 µM) was 84.9%. For the same compound, the viability, T/C [5] was 86%, the viability, T/C (second compound 0.316 µM, first compound 0.1 µM) was 103% and the viability, T/C [6] was 87.4%. For the same compound, the viability, T/C (second compound 0.316 µM, first compound 1 µM) was 83.7%, the viability, T/C (second compound 0.316 µM, first compound 3.16 µM) was 86.5% and the viability, T/C (second compound 0.316 µM, first compound 10 µM) was 74.9%. It also gave a viability, T/C [7] of 101%, a viability, T/C (second compound 1 µM, first compound 0.1 µM) of 83.2% and a viability, T/C [8] of 75.8%. For the same compound, the viability, T/C (second compound 1 µM, first compound 1 µM) was 65.7%, the viability, T/C (second compound 1 µM, first compound 3.16 µM) was 60.6% and the viability, T/C (second compound 1 µM, first compound 10 µM) was 89.5%. It also gave a viability, T/C [9] of 57%, a viability, T/C (second compound 3.16 µM, first compound 0.1 µM) of 69% and a viability, T/C [10] of 65.7%. For the same compound, the viability, T/C (second compound 3.16 µM, first compound 1 µM) was 75.5%, the viability, T/C (second compound 3.16 µM, first compound 3.16 µM) was 71.3% and the viability, T/C (second compound 3.16 µM, first compound 10 µM) was 63%. It also gave a viability, T/C [11] of 81%, a viability, T/C (second compound 10 µM, first compound 0.1 µM) of 78.1% and a viability, T/C [12] of 59.6%. It also gave a viability, T/C (second compound 10 µM, first compound 1 µM) of 71.9%, a viability, T/C (second compound 10 µM, first compound 3.16 µM) of 83.1% and a viability, T/C (second compound 10 µM, first compound 10 µM) of 55.6%.

From PubChem BioAssay AID2060507 (Molecular Pharmacology Branch, DTP, NCI, 2025)
